In patent publication US6596694B2, “Caloporoside derivatives, methods of their preparation and use” (Aventis Pharma Deutschland GmbH, priority 2001, dated 2003):

Target: cyclin D1/CDK4 (Homo sapiens, UniProt P11802)
Test: Bioassay for CDK-4 inhibitors (phosphorylation of biotinylated peptide substrate, 33P-γ-ATP, flash plates)
Format: biochemical
Conditions: 2 μM ATP, 2 hours at 37° C., 10 concentrations; read-out: IC50 (concentration which deactivates 50% of CDK-4)
Method: In order to detect the inhibitors of cyclin-dependent kinases (CDKs), use is made of a test in which the phosphorylation rate by the cyclin-dependent kinases of a specific peptide substrate is measured. The cyclin-dependent kinases are activated when the kinase binds to its respective cyclin. A [γ-P]-phosphate is transferred from [γ-P]-ATP to the peptide substrate by the activated CDK. The test is carried out in 96-well microtiter plates. The radioactivity of the [γ-P]-phosphate on the substrate is measured.
IC50 values for the caloporoside derivatives are shown in Table 1; this is the concentration which deactivates 50% of CDK-4.
For the determination of the IC50 value, stock solutions of the caloporoside derivatives according to the invention were prepared in a concentration of 10 mM. […] flash plates were coated with 50 μl (50 μg/well) of biotinylated peptide substrate at room temperature, incubated for 2 hours, and subsequently washed 3× with PBS buffer. For the reaction, 30 μl of a buffer-diluted solution of the caloporoside derivatives and 20 μl of a pre-mixed ATP/cyclin D1/CDK4 solution (final concentration: 1 μCl of 33P-γ-ATP, 2 μM of ATP and 1 μg of enzyme mixture) were pipetted onto the plates. After a reaction time of 2 hours at 37° C., the plates were washed 3× with 80 μl of 3% phosphoric acid. Radioactivity was subsequently measured for 30 seconds in a MicroBeta counter. The percentage inhibition was determined with the aid of mathematical equations. For the determination of IC50 values, 10 different concentrations of the compounds according to the invention in a freshly diluted DMSO solution were tested.

Sequence of cyclin D1/CDK4 (P11802 whole entry, species assumed): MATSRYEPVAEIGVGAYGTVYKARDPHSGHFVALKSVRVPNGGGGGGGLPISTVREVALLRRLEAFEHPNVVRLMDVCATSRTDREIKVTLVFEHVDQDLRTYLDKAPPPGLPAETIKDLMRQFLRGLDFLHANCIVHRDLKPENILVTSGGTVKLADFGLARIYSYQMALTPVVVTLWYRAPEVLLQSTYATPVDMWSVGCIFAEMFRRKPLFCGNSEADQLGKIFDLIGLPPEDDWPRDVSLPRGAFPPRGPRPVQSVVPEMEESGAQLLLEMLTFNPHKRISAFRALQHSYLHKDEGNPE
Sequence of cyclin D1/CDK4 (P24385 whole entry partner, species assumed): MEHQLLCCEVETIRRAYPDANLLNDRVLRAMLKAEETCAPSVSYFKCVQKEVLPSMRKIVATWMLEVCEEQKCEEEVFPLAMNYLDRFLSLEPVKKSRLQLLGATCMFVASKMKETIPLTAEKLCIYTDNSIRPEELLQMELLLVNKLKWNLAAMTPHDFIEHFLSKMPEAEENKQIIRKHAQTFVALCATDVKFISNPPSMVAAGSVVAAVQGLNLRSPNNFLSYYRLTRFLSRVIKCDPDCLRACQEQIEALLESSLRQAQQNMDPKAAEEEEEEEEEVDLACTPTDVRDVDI

| IC50 [nM] | SMILES |
| --- | --- |
| 1800 | CC(=O)OC1C(OC(COC(=O)CC(=O)O)C(O)C(O)C(O)C(=O)OC(C)CCCCCCCCCCCCCCCc2cccc(O)c2C(=O)O)OC(CO)C(O)C1O (centres unmarked) [Caloporoside D] |
| 1500 | CC(=O)OC1C(OC(CO)C(O)C(O)C(O)C(=O)OC(C)CCCCCCCCCCCCCCCc2cccc(O)c2C(=O)O)OC(CO)C(O)C1O (centres unmarked) [Caloporoside F] |

Second part, the molecule before the results:

| SMILES | IC50 [nM] |
| --- | --- |
| CC(=O)Oc1cccc(CCCCCCCCCCCCCCCC(C)OC(=O)C(O)C(O)C(O)C(CO)OC2OC(CO)C(O)C(O)C2O)c1C(=O)O (centres unmarked) [Caloporoside B] | 1500 |
| CC(=O)Oc1cccc(CCCCCCCCCCCCCCCC(C)OC(=O)C(O)C(O)C(O)C(COC(=O)CC(=O)O)OC2OC(CO)C(O)C(O)C2OC(C)=O)c1C(=O)O (centres unmarked) [Caloporoside C] | 3100 |
| CC(=O)OC1C(O)C(CO)OC(OC(COC(=O)CC(=O)O)C(O)C(O)C(O)C(=O)OC(C)CCCCCCCCCCCCCCCc2cccc(O)c2C(=O)O)C1O (centres unmarked) [Caloporoside E] | 1800 |
